Patent US12018059B2, “Human amylin analog polypeptides and methods of use” (Intarcia Therapeutics, Inc., priority 2018, dated 2024)
Starred links: 1 amine or outer side, 2 acyl side, 3 side chain; linkers in the order of their positions; H or OH if unused. Positions of bridges follow the written chain, without caps; N, C: chain ends. Non-standard residues stand in square brackets, D forms with d. Residues, ends and D or L forms follow the SMILES beside them. Groups on a side chain read outwards from the residue. *: point of attachment. Docosanoyl = CCCCCCCCCCCCCCCCCCCCCC(=O)*; γGlu = O=C(O)[C@H](CCC(=O)[*:2])N[*:1]; Palmitoyl = CCCCCCCCCCCCCCCC(=O)*

Experiments:
[1] = in vivo; design: species or system Sprague-Dawley rats; conditions: rat, iv, 0.033 mg/kg
How it was run: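 Male Sprague-Dawley rats, non-fasted (n=3), given peptide in saline as 1-h IV or SC infusion at 0.033 mg/kg, or SC bolus at 0.3 mg/kg; jugular blood to 48 h into K2EDTA plus protease inhibitors. Plasma extracted by precipitation or WCX solid-phase extraction, quantified by UPLC-MS/MS against standards in matching rat plasma.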

[2] = target: T1, human calcitonin receptor (hCTR) (Homo sapiens, UniProt P30988); assay: cAMP accumulation functional assay in HEK293-CNG cells expressing hCTR; type: cell-based; conditions: presence versus absence of HSA (FIG. 2D)
T1 sequence (P30988 25-474): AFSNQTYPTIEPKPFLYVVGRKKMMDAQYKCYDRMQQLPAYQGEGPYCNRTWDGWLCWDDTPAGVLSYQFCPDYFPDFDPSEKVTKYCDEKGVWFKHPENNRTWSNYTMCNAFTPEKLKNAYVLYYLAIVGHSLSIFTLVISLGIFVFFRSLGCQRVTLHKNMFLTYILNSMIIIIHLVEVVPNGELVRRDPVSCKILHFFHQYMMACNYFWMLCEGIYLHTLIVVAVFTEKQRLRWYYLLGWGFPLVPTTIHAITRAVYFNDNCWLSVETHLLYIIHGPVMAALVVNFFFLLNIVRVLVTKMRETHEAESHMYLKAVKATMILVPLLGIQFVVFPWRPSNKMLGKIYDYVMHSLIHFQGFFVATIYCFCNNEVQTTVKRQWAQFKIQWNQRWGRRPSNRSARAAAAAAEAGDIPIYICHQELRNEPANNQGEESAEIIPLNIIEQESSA
Experimental: In the presence of the non-specific cAMP/cGMP phosphodiesterase inhibitor 3-isobutyl-1-methylxanthine (IBMX), accumulating cAMP can be measured in vitro using common detection methods. Thus, it is possible to estimate an in vitro potency (pEC50) for peptides activating each of these receptors using fit dose-response curves for cAMP accumulation.
Cells were carried in growth media for no more than 10 passages prior to testing.
Peptides were serially diluted in the same buffer as above for each given assay condition. Two assay control solutions consisting of 50 mcM forskolin (cAMP system maximum) or assay buffer only (cAMP system minimum) were also prepared in the appropriate stimulation buffers. Five microliters of each peptide-concentration, or assay control was added to triplicate wells and incubated for thirty minutes at room temperature. During this incubation step a 4× europium labelled cAMP tracer solution and a 4× Ulight®-anti-cAMP solution (consisting of an anti-cAMP monoclonal antibody labelled with Ulight™ dye) was prepared according to the manufacturer's protocol (PerkinElmer LANCE Ultra cAMP kit). Following this incubation, 5 mcL europium labelled cAMP and 5 mcL Ulight anti-cAMP antibody was added to wells. The plate was covered with an adhesive cover to prevent evaporation and incubated for 60 minutes at room temperature in the dark. Plates were read on an Envision fluorescent plate reader (PerkinElmer).
Test values were first normalized to the forskolin induced cAMP system maximum and system minimum averaged values in Excel using the formula: (test value−system minavg)/(system maxavg−system minavg)*100. Normalized test values represent a baseline corrected percentage of the system maximum cAMP response induced by forskolin. Normalized data was analyzed from triplicate tests and used to estimate the EC50 for each peptide on each receptor. Data was fit in GraphPad Prism software (v7.04) using a 4-parameter logistic curve model: Y=Bottom+(Top−Bottom)/(1+10^((Log EC50−X))). The Hill slope was constrained to 1.0. EC50 values were converted to pEC50 values using the formula: pEC50=−Log (EC50).

| Compound | Vd [1] [L/kg] | clearance [1] [mL/min/kg] | half-life [1] [h] | effect of HSA on potency at hCTR [2] |
| --- | --- | --- | --- | --- |
| CCCCCCCCCCCCCCCC(=O)N[C@@H](CCC(=O)N[C@@H](CCC(=O)NCCCC[C@H](NC(=O)[C@H](CCC(=O)O)NC(=O)[C@H](CC(N)=O)NC(=O)[C@H](C)NC(=O)[C@H](CC(C)C)NC(=O)[C@H](CCCNC(=N)N)NC(=O)[C@H](CCC(N)=O)NC(=O)[C@@H](NC(=O)[C@H](C)NC(=O)[C@@H]1CSSC[C@H](NC(=O)[C@@H](N)CO)C(=O)N[C@@H](CC(N)=O)C(=O)N[C@@H]([C@@H](C)O)C(=O)N[C@@H](CO)C(=O)N[C@@H]([C@@H](C)O)C(=O)N1)[C@@H](C)O)C(=O)N[C@@H](Cc1c[nH]cn1)C(=O)N[C@@H](CCCCN)C(=O)N[C@@H](CO)C(=O)N[C@@H](CO)C(=O)N[C@@H](CC(N)=O)C(=O)N[C@@H](CC(N)=O)C(=O)N[C@@H](Cc1ccccc1)C(=O)NCC(=O)N1CCC[C@H]1C(=O)N[C@H](C(=O)N[C@@H](CC(C)C)C(=O)N1CCC[C@H]1C(=O)N1CCC[C@H]1C(=O)N[C@H](C(=O)N[C@@H](CCCCN)C(=O)N[C@H](C(=O)NCC(=O)N[C@@H](CO)C(=O)N[C@@H](CCC(=O)O)C(=O)N[C@H](C(=O)N[C@@H](Cc1ccc(O)cc1)C(N)=O)[C@@H](C)O)C(C)C)[C@@H](C)O)[C@@H](C)CC)C(=O)O)C(=O)O [Compound A123] (H-SCNTSTCATQRLANEK([γGlu-γGlu-Palmitoyl])HKSSNNFGPILPPTKVGSETY-NH2; disulfide 2-7) | 0.146 | 0.58 | 3.2 | – |
| CCCCCCCCCCCCCCCCCCCCCC(=O)N[C@@H](CCC(=O)N[C@@H](CCC(=O)NCCCC[C@@H](NC(=O)[C@H](CCC(=O)O)NC(=O)[C@H](CC(N)=O)NC(=O)[C@H](C)NC(=O)[C@H](CC(C)C)NC(=O)[C@H](CCCNC(=N)N)NC(=O)[C@H](CCC(N)=O)NC(=O)[C@@H](NC(=O)[C@H](C)NC(=O)[C@@H]1CSSC[C@H](NC(=O)[C@@H](N)CO)C(=O)N[C@@H](CC(N)=O)C(=O)N[C@@H]([C@@H](C)O)C(=O)N[C@@H](CO)C(=O)N[C@@H]([C@@H](C)O)C(=O)N1)[C@@H](C)O)C(=O)N[C@@H](Cc1c[nH]cn1)C(=O)N[C@@H](CCCCN)C(=O)N[C@@H](CO)C(=O)N[C@@H](CO)C(=O)N[C@@H](CC(N)=O)C(=O)N[C@@H](CC(N)=O)C(=O)N[C@@H](Cc1ccccc1)C(=O)NCC(=O)N1CCC[C@H]1C(=O)N[C@H](C(=O)N[C@@H](CC(C)C)C(=O)N1CCC[C@H]1C(=O)N1CCC[C@H]1C(=O)N[C@H](C(=O)N[C@@H](CCCCN)C(=O)N[C@H](C(=O)NCC(=O)N[C@@H](CO)C(=O)N[C@@H](CCC(=O)O)C(=O)N[C@H](C(=O)N[C@@H](Cc1ccc(O)cc1)C(N)=O)[C@@H](C)O)C(C)C)[C@@H](C)O)[C@@H](C)CC)C(=O)O)C(=O)O [Compound A124] (H-SCNTSTCATQRLANE[dK]([γGlu-γGlu-Docosanoyl])HKSSNNFGPILPPTKVGSETY-NH2; disulfide 2-7) | 0.273 | 1.72 | 2.14 | – |
| CCCCCCCCCCCCCCCC(=O)N[C@@H](CCC(=O)NCCCC[C@H](NC(=O)[C@H](CCC(=O)O)NC(=O)[C@H](CC(N)=O)NC(=O)[C@H](C)NC(=O)[C@H](CC(C)C)NC(=O)[C@H](CCCNC(=N)N)NC(=O)[C@H](CCC(N)=O)NC(=O)[C@@H](NC(=O)[C@H](C)NC(=O)[C@@H]1CSSC[C@H](NC(=O)[C@@H](N)CO)C(=O)N[C@@H](CC(N)=O)C(=O)N[C@@H]([C@@H](C)O)C(=O)N[C@@H](CO)C(=O)N[C@@H]([C@@H](C)O)C(=O)N1)[C@@H](C)O)C(=O)N[C@@H](Cc1c[nH]cn1)C(=O)N[C@@H](CCCCN)C(=O)N[C@@H](CO)C(=O)N[C@@H](CO)C(=O)N[C@@H](CC(N)=O)C(=O)N[C@@H](CC(N)=O)C(=O)N[C@@H](Cc1ccccc1)C(=O)NCC(=O)N1CCC[C@H]1C(=O)N[C@H](C(=O)N[C@@H](CC(C)C)C(=O)N1CCC[C@H]1C(=O)N1CCC[C@H]1C(=O)N[C@H](C(=O)N[C@@H](CCCCN)C(=O)N[C@H](C(=O)NCC(=O)N[C@@H](CO)C(=O)N[C@@H](CCC(=O)O)C(=O)N[C@H](C(=O)N[C@@H](Cc1ccc(O)cc1)C(N)=O)[C@@H](C)O)C(C)C)[C@@H](C)O)[C@@H](C)CC)C(=O)O [Compound A125] (H-SCNTSTCATQRLANEK([γGlu-Palmitoyl])HKSSNNFGPILPPTKVGSETY-NH2; disulfide 2-7) | 0.211 | 3.56 | 0.963 | – |
| CC[C@H](C)[C@H](NC(=O)[C@H](C)NC(=O)[C@@H](NC(=O)[C@H](CCC(N)=O)NC(=O)[C@@H]1CCCN1C(=O)[C@H](Cc1ccccc1)NC(=O)[C@@H](NC(=O)[C@H](Cc1c[nH]cn1)NC(=O)[C@H](Cc1ccccc1)NC(=O)[C@H](CCCCN)NC(=O)[C@H](CC(N)=O)NC(=O)[C@H](Cc1ccccc1)NC(=O)[C@H](CC(=O)O)NC(=O)[C@H](CCC(N)=O)NC(=O)[C@@H](NC(=O)[C@H](Cc1ccc(O)cc1)NC(=O)[C@@H](NC(=O)CNC(=O)[C@H](CC(C)C)NC(=O)[C@H](CCSC)NC(=O)[C@@H]1CSSC[C@H](N)C(=O)NCC(=O)N[C@@H](CC(N)=O)C(=O)N[C@@H](CC(C)C)C(=O)N[C@@H](CO)C(=O)N[C@@H]([C@@H](C)O)C(=O)N1)[C@@H](C)O)[C@@H](C)O)[C@@H](C)O)[C@@H](C)O)C(=O)NCC(=O)N[C@H](C(=O)NCC(=O)N[C@@H](C)C(=O)N1CCC[C@H]1C(N)=O)C(C)C [hCalcitonin, human calcitonin, reference compound] | – | – | – | unaffected by the presence of HSA |
